Measurements reported in PubChem BioAssay AID1963975 (Molecular Pharmacology Branch, DTP, NCI, 2024).
pIC50: −log10 of the molar value.

Test system: 624824-186-R-J2-PDC multicell spheroids, viability
Assay: Anticancer human tumor 624824-186-R-J2-PDC patient-derived colon adenocarcinoma cell line growth inhibition [PI3K]
Settings: for pIC50: curve of first compound; for viability, T/C: stronger effect = lower value; active = viability on the fitted dose curve at most 10% of control; inactive = the rest
Outline: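 Complex 3D spheroids (cancer cells + endothelial HUVEC + mesenchymal stem cells); drug pairs of targeted agent x inavolisib/alpelisib/duvelisib/copanlisib; half-log series from ~Cmax, max 10 microM if Cmax unknown; endpoint viability.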

[1] = second compound 0.0316 µM, first compound 0.0316 µM
[2] = second compound 0.0316 µM, first compound 0.1 µM
[3] = second compound 0.0316 µM, first compound 0.316 µM
[4] = second compound 0.0316 µM, first compound 1 µM
[5] = second compound 0.0316 µM, first compound 3.16 µM
[6] = second compound 0.0316 µM, first compound 10 µM
[7] = second compound 0.1 µM, first compound 0.0316 µM
[8] = second compound 0.1 µM, first compound 0.1 µM
[9] = second compound 0.1 µM, first compound 0.316 µM
[10] = second compound 0.1 µM, first compound 1 µM
[11] = second compound 0.1 µM, first compound 3.16 µM
[12] = second compound 0.1 µM, first compound 10 µM
[13] = second compound 0.316 µM, first compound 0.0316 µM
[14] = second compound 0.316 µM, first compound 0.1 µM
[15] = second compound 0.316 µM, first compound 0.316 µM
[16] = second compound 0.316 µM, first compound 1 µM
[17] = second compound 0.316 µM, first compound 3.16 µM
[18] = second compound 0.316 µM, first compound 10 µM
[19] = second compound 1 µM, first compound 0.0316 µM
[20] = second compound 1 µM, first compound 0.1 µM
[21] = second compound 1 µM, first compound 0.316 µM
[22] = second compound 1 µM, first compound 1 µM
[23] = second compound 1 µM, first compound 3.16 µM
[24] = second compound 1 µM, first compound 10 µM
[25] = second compound 3.16 µM, first compound 0.0316 µM
[26] = second compound 3.16 µM, first compound 0.1 µM
[27] = second compound 3.16 µM, first compound 0.316 µM
[28] = second compound 3.16 µM, first compound 1 µM
[29] = second compound 3.16 µM, first compound 3.16 µM
[30] = second compound 3.16 µM, first compound 10 µM
[31] = second compound 10 µM, first compound 0.0316 µM
[32] = second compound 10 µM, first compound 0.1 µM
[33] = second compound 10 µM, first compound 0.316 µM
[34] = second compound 10 µM, first compound 1 µM
[35] = second compound 10 µM, first compound 3.16 µM
[36] = second compound 10 µM, first compound 10 µM
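Note: spheroids exposed to agents for 7 days before viability read.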
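Throughout, for viability, T/C: 100% = DMSO vehicle treated spheroids.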

CCCS(=O)(=O)Nc1ccc(F)c(C(=O)c2c[nH]c3ncc(-c4ccc(Cl)cc4)cc23)c1F + Cc1nc(NC(=O)N2CCCC2C(N)=O)sc1-c1ccnc(C(C)(C)C(F)(F)F)c1
5.98: pIC50 (second compound 3.16 µM)
6.34: pIC50 (second compound 10 µM)
< 5.00: pIC50 (second compound 0.0316 µM)
5.29: pIC50 (second compound 1 µM)
5.18: pIC50 (second compound 0.316 µM)
inactive: viability, T/C [1] 68% | viability, T/C [2] 77.2% | viability, T/C [3] 61.6% | viability, T/C [4] 76.8% | viability, T/C [5] 87.3% | viability, T/C [6] 42.2% | viability, T/C [7] 84% | viability, T/C [8] 64.8% | viability, T/C [9] 61.2% | viability, T/C [10] 91.9% | viability, T/C [11] 96.5% | viability, T/C [12] 37.7% | viability, T/C [13] 72.3% | viability, T/C [14] 72.7% | viability, T/C [15] 53.8% | viability, T/C [16] 73.1% | viability, T/C [17] 78.1% | viability, T/C [18] 38.9% | viability, T/C [19] 74.6% | viability, T/C [20] 50.7% | viability, T/C [21] 54.4% | viability, T/C [22] 65.6% | viability, T/C [23] 75.9% | viability, T/C [24] 30.4% | viability, T/C [25] 79.6% | viability, T/C [26] 60.6% | viability, T/C [27] 56.4% | viability, T/C [28] 51.7% | viability, T/C [29] 52% | viability, T/C [30] 23.2% | viability, T/C [31] 58.7% | viability, T/C [32] 50% | viability, T/C [33] 49.9% | viability, T/C [34] 45.1% | viability, T/C [35] 41.1% | viability, T/C [36] 19%
5.15: pIC50 (second compound 0.1 µM)

C[C@@H](NC(=O)c1ncnc(N)c1Cl)c1ncc(C(=O)Nc2cc(C(F)(F)F)c(Cl)cn2)s1 + Cc1nc(NC(=O)N2CCCC2C(N)=O)sc1-c1ccnc(C(C)(C)C(F)(F)F)c1
< 5.00: pIC50 (second compound 0.0316 µM) | pIC50 (second compound 0.1 µM) | pIC50 (second compound 0.316 µM) | pIC50 (second compound 1 µM) | pIC50 (second compound 3.16 µM)
inactive: viability, T/C [1] 103% | viability, T/C [2] 103% | viability, T/C [3] 91.8% | viability, T/C [4] 84.2% | viability, T/C [5] 73.2% | viability, T/C [6] 82.4% | viability, T/C [7] 80.8% | viability, T/C [8] 84.2% | viability, T/C [9] 85.7% | viability, T/C [10] 76.1% | viability, T/C [11] 84.2% | viability, T/C [12] 85.5% | viability, T/C [13] 106% | viability, T/C [14] 99.8% | viability, T/C [15] 87.7% | viability, T/C [16] 63.5% | viability, T/C [17] 76.2% | viability, T/C [18] 81.1% | viability, T/C [19] 101% | viability, T/C [20] 96.1% | viability, T/C [21] 102% | viability, T/C [22] 70.7% | viability, T/C [23] 68.3% | viability, T/C [24] 71.5% | viability, T/C [25] 87.4% | viability, T/C [26] 92.6% | viability, T/C [27] 88.8% | viability, T/C [28] 70.7% | viability, T/C [29] 58.1% | viability, T/C [30] 49.7% | viability, T/C [31] 78% | viability, T/C [32] 80.4% | viability, T/C [33] 63.4% | viability, T/C [34] 54.7% | viability, T/C [35] 38% | viability, T/C [36] 40.1%
5.93: pIC50 (second compound 10 µM)

Cn1ncnc1[C@H]1c2n[nH]c(=O)c3cc(F)cc(c23)N[C@@H]1c1ccc(F)cc1 + Cc1nc(NC(=O)N2CCCC2C(N)=O)sc1-c1ccnc(C(C)(C)C(F)(F)F)c1
< 7.00: pIC50 (second compound 0.0316 µM) | pIC50 (second compound 0.1 µM) | pIC50 (second compound 0.316 µM) | pIC50 (second compound 1 µM) | pIC50 (second compound 3.16 µM) | pIC50 (second compound 10 µM)
inactive: viability, T/C (second compound 0.0316 µM, first compound 0.000316 µM) 89.5% | viability, T/C (second compound 0.0316 µM, first compound 0.001 µM) 79.8% | viability, T/C (second compound 0.0316 µM, first compound 0.00316 µM) 79.5% | viability, T/C (second compound 0.0316 µM, first compound 0.01 µM) 106% | viability, T/C [1] 89% | viability, T/C [2] 101% | viability, T/C (second compound 0.1 µM, first compound 0.000316 µM) 91.8% | viability, T/C (second compound 0.1 µM, first compound 0.001 µM) 87.4% | viability, T/C (second compound 0.1 µM, first compound 0.00316 µM) 105% | viability, T/C (second compound 0.1 µM, first compound 0.01 µM) 80.9% | viability, T/C [7] 70.2% | viability, T/C [8] 86.4% | viability, T/C (second compound 0.316 µM, first compound 0.000316 µM) 95.4% | viability, T/C (second compound 0.316 µM, first compound 0.001 µM) 92.9% | viability, T/C (second compound 0.316 µM, first compound 0.00316 µM) 101% | viability, T/C (second compound 0.316 µM, first compound 0.01 µM) 88% | viability, T/C [13] 108% | viability, T/C [14] 80.4% | viability, T/C (second compound 1 µM, first compound 0.000316 µM) 88.3% | viability, T/C (second compound 1 µM, first compound 0.001 µM) 102% | viability, T/C (second compound 1 µM, first compound 0.00316 µM) 78.1% | viability, T/C (second compound 1 µM, first compound 0.01 µM) 97.1% | viability, T/C [19] 101% | viability, T/C [20] 86.3% | viability, T/C (second compound 3.16 µM, first compound 0.000316 µM) 86.8% | viability, T/C (second compound 3.16 µM, first compound 0.001 µM) 78.6% | viability, T/C (second compound 3.16 µM, first compound 0.00316 µM) 76.3% | viability, T/C (second compound 3.16 µM, first compound 0.01 µM) 82.9% | viability, T/C [25] 92.4% | viability, T/C [26] 82.1% | viability, T/C (second compound 10 µM, first compound 0.000316 µM) 87.5% | viability, T/C (second compound 10 µM, first compound 0.001 µM) 84.7% | viability, T/C (second compound 10 µM, first compound 0.00316 µM) 80.3% | viability, T/C (second compound 10 µM, first compound 0.01 µM) 71.8% | viability, T/C [31] 77.3% | viability, T/C [32] 84.8%
